In patent EP2303842B1, “A process for producing lercanidipine.HCl form V” (Recordati Ireland Limited, priority 2008, dated 2010) one finds Solubility data, which are given here for 3 compounds.

The term Solubility denotes how much of the substance goes into solution per volume. A lower Solubility goes with little dissolved substance.

Structures can show the parent of a compound that is named as a salt.

This data set is described as follows: Solubility determination in water, HCl 0.1 M and organic solvents (shaken suspensions, HPLC assay of the supernatant). In kind it is physicochemical. The note with it: 25°C, shaken 24h, 1440 min. As to the method:
For this purpose, solubility determination at RT of FI, FII and FV in water, HCl 0.1 M and some organic solvents has been carried out as described in the experimental section.
Suspensions in different solvents, ranging in concentration from 20 mg/mL to 400 mg/mL, depending on the solubility, were shaken with thermomixer at 25°C, […] for 24h. An aliquot was taken, centrifuged for 5 minutes at 13000 rpm, the supernatant was transferred in HPLC vials, opportunely diluted and assayed. For aqueous solvent the supernatant was further filtered with a 0.2 µm PVDF filter and centrifuged for 5 minutes at 8000 rpm.
Solubility data (mg/mL) obtained are gathered in Table 2. Table 2: solubility
HPLC-DAD: HP 1050 separation module controlled by HP Chem-station. Method:
Standard and calibration: automatic three point calibration (0.5 mg/mL, 1.0 mg/mL, 1.5 mg/mL), including the zero, using HP Chem-station program.

The mark [1] stands for this setting: solvent H2O, supernatant filtered 0.2 µm PVDF.
Setting [2] is: solvent HCl 0.1M, supernatant filtered 0.2 µm PVDF.

In the case of `COC(=O)C1=C(C)NC(C)=C(C(=O)OC(C)(C)CN(C)CCC(c2ccccc2)c2ccccc2)C1c1cccc([N+](=O)[O-])c1` (single isomer, unassigned) [FI, Lercanidipine.HCl Form I], the Solubility by setting is: (solvent ACN) 13800 µg/mL; (solvent EtOH) 28200 µg/mL; under setting [1], 1600 µg/mL; under setting [2], 200 µg/mL; (solvent MeOH) 263900 µg/mL; (solvent acetone) 9400 µg/mL.
Regarding `COC(=O)C1=C(C)NC(C)=C(C(=O)OC(C)(C)CN(C)CCC(c2ccccc2)c2ccccc2)C1c1cccc([N+](=O)[O-])c1` (single isomer, unassigned) [FII, Lercanidipine.HCl Form II], the Solubility by setting is: (solvent ACN) 4800 µg/mL; (solvent EtOH) 10500 µg/mL; under setting [1], 300 µg/mL; under setting [2], 9 µg/mL; (solvent MeOH) 83900 µg/mL; (solvent acetone) 2700 µg/mL.
In the case of `COC(=O)C1=C(C)NC(C)=C(C(=O)OC(C)(C)CN(C)CCC(c2ccccc2)c2ccccc2)C1c1cccc([N+](=O)[O-])c1` (single isomer, unassigned) [FV, Lercanidipine.HCl Form V], the Solubility stood at 26100 µg/mL (solvent ACN); 46720 µg/mL (solvent EtOH); 960 µg/mL under setting [1]; 70 µg/mL under setting [2]; 221900 µg/mL (solvent MeOH); 18500 µg/mL (solvent acetone).
